SMILES strings stand for the structures. Activity calls are given as the source filed them. The calls are words filed in the database; no cut-off is given here.

The results in this text go back to ChEMBL document CHEMBL5154718, “Synthesis, biological evaluation, and molecular modeling simulations of new heterocyclic hybrids as multi-targeted anti-Alzheimer's agents” (Eur J Med Chem, 2022).

Data set [1] concerns the target T1, Acetylcholinesterase (Homo sapiens, UniProt P22303).
Description: Inhibition of C-terminal 6His-tagged human recombinant AChE (32 to 614 residues) expressed in HEK293 cells using acetylthiocholine iodide as substrate preincubated for 5 mins followed by substrate addition by Ellman's method
Data set [2] has as its target T2, Amyloid-beta precursor protein (Homo sapiens, UniProt P05067). In words: Inhibition of amyloid beta (1 to 42 ) (unknown origin) self aggregation measured after 3 hrs by ThT fluorescence assay.
Data set [3] deals with T2, Amyloid-beta precursor protein. In words: Inhibition of amyloid beta (1 to 42 ) (unknown origin) self aggregation at 25 uM measured after 3 hrs by ThT fluorescence assay relative to control.
The target of data set [4] is T3, Cholinesterase (Homo sapiens, UniProt P06276).
T3 sequence (P06276 whole entry): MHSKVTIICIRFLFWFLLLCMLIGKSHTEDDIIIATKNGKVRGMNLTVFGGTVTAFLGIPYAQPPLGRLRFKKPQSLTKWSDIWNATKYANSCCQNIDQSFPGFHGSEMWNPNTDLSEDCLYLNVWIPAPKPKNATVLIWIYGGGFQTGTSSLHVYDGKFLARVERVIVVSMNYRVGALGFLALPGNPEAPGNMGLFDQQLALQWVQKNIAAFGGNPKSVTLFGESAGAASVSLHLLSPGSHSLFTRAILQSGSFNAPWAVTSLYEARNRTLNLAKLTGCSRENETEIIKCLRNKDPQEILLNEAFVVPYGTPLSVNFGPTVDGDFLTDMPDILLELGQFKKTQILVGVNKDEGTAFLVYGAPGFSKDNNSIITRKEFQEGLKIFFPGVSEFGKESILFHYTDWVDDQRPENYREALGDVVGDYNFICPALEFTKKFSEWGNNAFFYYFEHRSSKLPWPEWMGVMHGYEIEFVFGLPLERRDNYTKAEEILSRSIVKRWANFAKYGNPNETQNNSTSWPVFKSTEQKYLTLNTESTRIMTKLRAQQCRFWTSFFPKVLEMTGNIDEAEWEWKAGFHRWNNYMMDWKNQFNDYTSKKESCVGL
Description: Inhibition of C-terminal 6His-tagged human recombinant BuChE (29 to 602 residues) using butyrylthiocholine iodide as substrate preincubated for 5 mins followed by substrate addition by Ellman's method
Data set [5] concerns AChE. In kind it is toxicity, cell-based. The following applies: human, probe acetylthiocholine iodide; read-out: Ratio IC50.
Data set [6] in a line: Metal chelating activity assessed as Fe2+-compound complex formation by measuring hyperchromic shift at 30 to 60 uM by UV-visible spectrophotometry. The following applies: dose 30-60 µM.
Data set [7] is described as follows: Metal chelating activity assessed as Zn2+-compound complex formation by measuring hypochromic shift at 30 to 60 uM by UV-visible spectrophotometry. The following applies: dose 30-60 µM.
Data set [8] is described as follows: in vitro. The settings on record: human, HepG2 cells.
Description: Cytotoxicity against human HepG2 cells assessed as cell growth inhibition incubated for 72 hrs by MTT assay
The nature of data set [9]: animal or person. Format: functional. The settings on record: Rattus norvegicus, Sprague-Dawley, Brain, route ip, time 1 hrs.
A short description of data set [10]: in vivo. The settings on record: Sprague-Dawley, rat, ip.
Description: Toxicity in Sprague-Dawley rat assessed as median lethal dose administered intraperitoneally as single dose
The nature of data set [11]: Metal chelating activity assessed as Cu2+-compound complex formation by measuring bathochromic shift at 30 to 60 uM by UV-visible spectrophotometry. The settings on record: dose 30-60 µM.
Data set [12] can be described thus: Metal chelating activity assessed as Zn2+-compound complex formation by measuring hyperchromic shift at 30 to 60 uM by UV-visible spectrophotometry. The settings on record: dose 30-60 µM.
Data set [13] is described as follows: Metal chelating activity assessed as Cu2+-compound complex formation by measuring hyperchromic shift at 30 to 60 uM by UV-visible spectrophotometry. The settings on record: dose 30-60 µM.
The nature of data set [14]: Metal chelating activity assessed as Fe2+-compound complex formation by measuring bathochromic shift at 30 to 60 uM by UV-visible spectrophotometry. The following applies: dose 30-60 µM.
Data set [15] is described as follows: Metal chelating activity assessed as Zn2+-compound complex formation by measuring bathochromic shift at 30 to 60 uM by UV-visible spectrophotometry. The settings on record: dose 30-60 µM.
Data set [16] has as its target T1, Acetylcholinesterase. In words: Inhibition of human recombinant AChE using acetylthiocholine as substrate preincubated for 5 mins followed by substrate addition by Ellman's method.
Data set [17] has as its target T3, Cholinesterase. In words: Inhibition of human plasma BuChE using butyrylthiocholine as substrate preincubated for 5 mins followed by substrate addition by Ellman's method. Format: cell-free. For orientation: In Ellman's method for cholinesterases, released thiocholine reacts with DTNB.
Data set [18] is described as follows: Toxicity in Sprague-Dawley rat assessed as mortality up to 120 mg/kg, ip administered as single dose measured after 24 hrs. The settings on record: in vivo. In kind it is organism-based.

T2 sequence (P05067 whole entry): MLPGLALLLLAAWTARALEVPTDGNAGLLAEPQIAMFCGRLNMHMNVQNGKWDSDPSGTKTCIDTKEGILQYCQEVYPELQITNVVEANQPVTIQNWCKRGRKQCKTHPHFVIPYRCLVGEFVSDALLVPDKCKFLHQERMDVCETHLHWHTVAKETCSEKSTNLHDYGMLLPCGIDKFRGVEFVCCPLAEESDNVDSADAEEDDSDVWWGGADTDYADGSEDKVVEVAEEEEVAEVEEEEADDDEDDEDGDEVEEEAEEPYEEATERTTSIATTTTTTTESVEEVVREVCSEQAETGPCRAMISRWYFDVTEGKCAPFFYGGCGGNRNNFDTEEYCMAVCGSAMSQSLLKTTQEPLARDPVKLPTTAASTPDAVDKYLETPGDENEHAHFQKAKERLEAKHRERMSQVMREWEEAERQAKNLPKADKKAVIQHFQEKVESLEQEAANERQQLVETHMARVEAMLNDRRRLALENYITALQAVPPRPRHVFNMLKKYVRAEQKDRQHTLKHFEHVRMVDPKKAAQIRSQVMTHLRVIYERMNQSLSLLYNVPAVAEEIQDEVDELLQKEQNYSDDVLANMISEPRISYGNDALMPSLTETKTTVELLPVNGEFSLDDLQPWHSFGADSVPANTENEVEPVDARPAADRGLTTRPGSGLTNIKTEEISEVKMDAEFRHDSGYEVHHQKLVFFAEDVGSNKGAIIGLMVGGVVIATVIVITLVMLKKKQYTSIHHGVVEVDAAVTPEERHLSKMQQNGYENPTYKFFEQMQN
T1 sequence (P22303 whole entry): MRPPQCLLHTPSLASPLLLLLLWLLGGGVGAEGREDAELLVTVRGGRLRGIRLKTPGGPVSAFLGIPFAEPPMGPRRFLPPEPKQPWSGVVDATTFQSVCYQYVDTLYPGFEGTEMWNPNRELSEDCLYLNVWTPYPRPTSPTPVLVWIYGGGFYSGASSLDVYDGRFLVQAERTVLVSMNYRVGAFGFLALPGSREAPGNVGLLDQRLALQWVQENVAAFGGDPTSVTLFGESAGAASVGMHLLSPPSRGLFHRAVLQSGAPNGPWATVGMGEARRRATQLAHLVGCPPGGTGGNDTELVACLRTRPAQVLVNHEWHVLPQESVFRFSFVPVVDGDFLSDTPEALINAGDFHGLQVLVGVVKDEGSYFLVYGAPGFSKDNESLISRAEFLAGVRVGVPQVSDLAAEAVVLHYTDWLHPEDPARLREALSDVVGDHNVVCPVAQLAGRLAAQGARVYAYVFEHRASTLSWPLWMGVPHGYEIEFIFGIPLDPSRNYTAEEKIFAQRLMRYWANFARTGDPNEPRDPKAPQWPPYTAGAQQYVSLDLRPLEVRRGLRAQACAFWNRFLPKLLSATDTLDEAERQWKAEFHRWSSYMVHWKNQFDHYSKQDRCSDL

One may read the IC50 as the point on the concentration scale where inhibition reaches its midpoint. In turn, `O=C(CCN1CCCCC1)Nc1n[nH]c2ncccc12` had an IC50 in data set [1] of 658 nM.
In general, inhibition refers to the percentage by which the read-out fell short of the control. Lower therefore signals a weak effect. For the compound `CN1CCN(c2c3c(nc4ccc([N+](=O)[O-])cc24)CCCC3)CC1`, the IC50 was found to be 4490 nM in data set [2], 166 nM in [4] and 245 nM in data set [1]. The inhibition in data set [3] was 66.4%.
As for `Nc1nn(-c2c3c(nc4ccc([N+](=O)[O-])cc24)CCCC3)c2ncccc12`, the concentration for half-maximal inhibition (IC50) came to 31800 nM in data set [2], 5220 nM in data set [4] and 56 nM in data set [1]. In data set [5], the selectivity ratio at 72 h turned out to be 800. The compound further had an inhibition in data set [3] of 48%. The result in data set [6] and in [7] was Active. Besides, the IC50 at 72 h in data set [8] turned out to be 44800 nM.
Usually inhibition in vivo stands for the relative decrease from the control value, in per cent. Low values mean little suppression, high ones strong suppression. The LD50 is the dose at which mortality reaches 50%. A lower LD50 goes with greater toxicity. With `COc1cc2c(cc1OC)C(=O)C(CC1CCN(Cc3ccccc3)CC1)C2` (centres undefined) [DONEPEZIL], the inhibition in vivo at 10 mg/kg in [9] came out at 46.5%. In data set [10], this compound had an LD50 of 32.5 mg/kg.
As to `O=C(CCN1CCOCC1)Nc1n[nH]c2ncccc12`, the IC50 is 2130 nM in [2], 473 nM in [4] and 275 nM in data set [1]. In data set [3], this compound returned an inhibition of 71.8%.
In turn, `Cc1ccc2nc3c(c(N4CCN(C)CC4)c2c1)CCCC3` yielded an IC50 in [1] of 440 nM.
`Cc1ccc2nc3c(c(NCCN4CCOCC4)c2c1)CCCC3`: the IC50 was found to be 15000 nM in [2], 3130 nM in data set [4] and 131 nM in data set [1]. Also, the selectivity ratio at 72 h in data set [5] is 72.8. For the same compound, in data set [3], the inhibition is 54.6%. The outcome in data set [11], in data set [6], in data set [12], in data set [13], in data set [14] and in data set [15] was Active. For the same compound, 10 mg/kg produced 35% inhibition in vivo in data set [9]. The same compound came in with an LD50 in data set [10] of 96.5 mg/kg. In data set [8], this compound came in with an IC50 at 72 h of 9530 nM.
`Cc1ccc2nc3c(c(N4CCOCC4)c2c1)CCCC3` displayed an IC50 in data set [1] of 1780 nM.
`Cc1ccc2nc3c(c(NCCN4CCN(C)CC4)c2c1)CCCC3` returned an IC50 in data set [1] of 974 nM.
Same read-out and setting: next, `Cc1ccc2nc3c(c(Nc4[nH]nc5ncccc45)c2c1)CCCC3`: 811 nM.
`O=C(CN1CCN(Cc2ccccc2)CC1)Nc1n[nH]c2ncccc12`: the results for the IC50 in data set [2], in data set [4] and in [1] were 5670 nM, 2810 nM and 301 nM, respectively. For the same compound, the inhibition in data set [3] was 65%.
On to `O=C(Cn1nc2ncccc2c1NC(=O)Cn1nc2ncccc2c1NC(=O)CN1CCN(Cc2ccccc2)CC1)Nc1[nH]nc2ncccc12`, for which, in data set [1], the IC50 is 18000 nM.
Same read-out and setting: next, `Cc1ccc2nc3c(c(NCCN4CCCCC4)c2c1)CCCC3`: 2540 nM.
On the same count and under the same terms, in the case of `CC(=O)Nc1ccc2nc3c(c(N4CCOCC4)c2c1)CCCC3` it was 1110 nM; in that of `O=C(CN1CCN(c2ccccc2)CC1)Nc1n[nH]c2ncccc12`, 1950 nM.
Turning to `c1ccc2c(NCCN3CCOCC3)c3c(nc2c1)CCCC3`, the IC50 in data set [16] is 93 nM; in data set [17], 16 nM.
Take `COc1cc2nc3c(c(N4CCOCC4)c2cc1OC)CCCC3`: the IC50 in data set [2] amounted to 1230 nM; in data set [4], 767 nM; in data set [1], 62 nM. In addition, in data set [5], the selectivity ratio at 72 h stood at 102. In [3], this compound had an inhibition of 78.6%. Also, the outcome in [11], in data set [6], in [12], in data set [13], in data set [14] and in [7] was Active. In addition, in data set [9], the inhibition in vivo at 10 mg/kg worked out at 35%. Also, the Activity entry in data set [18] is on record as “Non-Toxic”. Also, the IC50 at 72 h in data set [8] is 6300 nM.
On to `Cc1ccc2nc3c(c(NCCO)c2c1)CCCC3`, for which the half-inhibitory concentration (IC50) in data set [2] is 2950 nM; in [4], 840 nM; in [1] it was 180 nM. This compound also showed an inhibition in [3] of 69.8%.
Compound `O=[N+]([O-])c1ccc2nc3c(c(N4CCOCC4)c2c1)CCCC3` displayed an IC50 in [1] of 1220 nM.
On the same count and under the same terms, in the case of `Cc1ccc2nc3c(c(NCCCl)c2c1)CCCC3` it was 763 nM.
In the case of `CC(=O)Nc1ccc2nc3c(c(N4CCCCC4)c2c1)CCCC3`, the IC50 is 1300 nM in [2], 459 nM in data set [4] and 301 nM in [1]. This compound also registered an inhibition in data set [3] of 77.3%.
For `O=[N+]([O-])c1ccc2nc3c(c(N4CCCCC4)c2c1)CCCC3`, in [1], inhibition was half-maximal at 1890 nM (IC50).
The compound `Cc1ccc2nc3c(c(NCCN4CCN(Cc5ccccc5)CC4)c2c1)CCCC3` gave an IC50 in data set [1] of 6380 nM.
On to `Cc1ccc2nc3c(c(N4CCCCC4)c2c1)CCCC3`, for which the IC50 in data set [2] was 6700 nM; in [4], 1990 nM; in data set [1], 118 nM. In addition, the selectivity ratio at 72 h in data set [5] stood at 321. The same compound displayed an inhibition in data set [3] of 61.9%. Moreover, the result in data set [11], in data set [6], in data set [12], in data set [13], in [14] and in data set [15] was Active. The inhibition in vivo at 10 mg/kg in [9] amounted to 35%. In addition, in data set [10], the LD50 was found to be 42 mg/kg. The compound also displayed an IC50 at 72 h in data set [8] of 37900 nM.
`Cc1ccc2nc3c(c(N4CCN(c5c6c(nc7ccc(C)cc57)CCCC6)CC4)c2c1)CCCC3`: in data set [1], the IC50 came out at 521 nM.
Compound `CN1CCN(CCC(=O)Nc2n[nH]c3ncccc23)CC1` gave an IC50 in data set [1] of 844 nM.
Consider `O=C(CCN1CCN(c2ccccc2)CC1)Nc1n[nH]c2ncccc12`, for which the IC50 in data set [2] was 1980 nM; in data set [4] it was 782 nM; in data set [1], 230 nM. The compound also returned an inhibition in data set [3] of 65.5%.
Turning to `O=C(CCN1CCN(Cc2ccccc2)CC1)Nc1n[nH]c2ncccc12`, the IC50 in data set [2] stood at 13300 nM; in [4] it was 3570 nM; in data set [1] it was 34 nM. Further, in data set [5], the selectivity ratio at 72 h turned out to be 735. In data set [3], the inhibition was determined as 55.5%. For the same compound, the result in data set [11], in data set [6] and in data set [12] was Active. This compound yielded an inhibition in vivo at 10 mg/kg in data set [9] of 35%. Besides, the Activity entry in data set [18] is on record as “Non-Toxic”. For the same compound, half-maximal inhibition in data set [8] (IC50 at 72 h) was put at 25000 nM.
Take `O=[N+]([O-])c1ccc2nc3c(c(Nc4[nH]nc5ncccc45)c2c1)CCCC3`: the values for the IC50 in data set [2], in [4] and in data set [1] were 777 nM, 429 nM and 299 nM, respectively. The selectivity ratio at 72 h in data set [5] is 105. In data set [3], this compound returned an inhibition of 81.5%. Further, the result in data set [11], in [6], in [12] and in [13] was Active. The compound also had an IC50 at 72 h in data set [8] of 31300 nM.
